Reference: patent US6355799B1, “Substituted benzene compounds, process for their preparation, and herbicidal and defoliant compositions containing them” (ISK Americas Incorporated, priority 1997, dated 2002)

Assays:
Format in all cases: in vivo
[1] = tested on: redroot pigweed (Amaranthus retroflexus, AMARE); assay: Pre-emerge test, greenhouse herbicide activity screening; details: pre-emerge; for phytotoxicity rating AMARE: 14 days after application, scale 0-100; for Pre-emerge Herbicidal Activity AMARE: phytotoxicity rating 0-100 at 14 days after application
Method in brief: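 Plants grown in 10 cm pots of sandy loam mix received acetone-dissolved compounds through a moving flat-fan nozzle. Doses ranged from 15 to 1000 g ai/ha. Pre-emerge pots were seeded one day earlier, post-emerge pots 8–21 days earlier. Fourteen days on, each pot was graded 0–100 for damage.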

[2] = tested on: field corn (Zea mays L., var. Dekalb 535, CORN); assay: Post-emerge test, crop safety; details: post-emerge; for CORN phytotoxicity rating (crop damage): 14 days after application, rating scale 0-100; for Post-emerge Herbicidal Activity CORN: crop damage rating 0-100 at 14 days after application
Method in brief: (§1)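 Compounds in acetone were track-sprayed at 15-1000 g ai/ha (187 l/ha) on sandy loam pots: pre-emerge one day after seeding, post-emerge at 2-3 leaf stage with 0.25% v/v non-ionic surfactant. Phytotoxicity was rated 14 days later on a 0 (no damage) to 100 (complete death) scale.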

[3] = tested on: upland rice (Oryza sp., var. Tebonnet, RICE); assay: Post-emerge test, crop safety; details: post-emerge; for RICE phytotoxicity rating (crop damage): 14 days after application, rating scale 0-100; for Post-emerge Herbicidal Activity RICE: crop damage rating 0-100 at 14 days after application
Method in brief: as §1

[4] = tested on: velvetleaf (Abutilon theophrasti, ABUTH); assay: Pre-emerge test, greenhouse herbicide activity screening; details: pre-emerge; for phytotoxicity rating ABUTH: 14 days after application, scale 0-100; for Pre-emerge Herbicidal Activity ABUTH: phytotoxicity rating 0-100 at 14 days after application
Method in brief: as §1

[5] = tested on: lambsquarters (Chenopodium album, CHEAL); assay: as above; details: pre-emerge; for phytotoxicity rating CHEAL: 14 days after application, scale 0-100; for Pre-emerge Herbicidal Activity CHEAL: phytotoxicity rating 0-100 at 14 days after application
Method in brief: as §1

[6] = tested on: ivyleaf morningglory (Ipomoea hederacea, IPOHE); assay: as above; details: pre-emerge; for phytotoxicity rating IPOHE: 14 days after application, scale 0-100; for Pre-emerge Herbicidal Activity IPOHE: phytotoxicity rating 0-100 at 14 days after application
Method in brief: as §1

[7] = tested on: sicklepod (Cassia obtusifolia, CASOB); assay: as above; details: pre-emerge; for phytotoxicity rating CASOB: 14 days after application, scale 0-100; for Pre-emerge Herbicidal Activity CASOB: phytotoxicity rating 0-100 at 14 days after application
Method in brief: as §1

[8] = tested on: barnyardgrass (Echinochloa crus-galli, ECHCG); assay: as above; details: pre-emerge; for phytotoxicity rating ECHCG: 14 days after application, scale 0-100; for Pre-emerge Herbicidal Activity ECHCG: phytotoxicity rating 0-100 at 14 days after application
Method in brief: as §1

[9] = tested on: johnsongrass (Sorghum halepense, SORHA); assay: as above; details: pre-emerge; for phytotoxicity rating SORHA: 14 days after application, scale 0-100; for Pre-emerge Herbicidal Activity SORHA: phytotoxicity rating 0-100 at 14 days after application
Method in brief: as §1

[10] = tested on: green foxtail (Setaria viridis, SETVI); assay: as above; details: pre-emerge; for phytotoxicity rating SETVI: 14 days after application, scale 0-100; for Pre-emerge Herbicidal Activity SETVI: phytotoxicity rating 0-100 at 14 days after application
Method in brief: as §1

[11] = tested on: large crabgrass (Digitaria sanguinalis, DIGSA); assay: as above; details: pre-emerge; for phytotoxicity rating DIGSA: 14 days after application, scale 0-100; for Pre-emerge Herbicidal Activity DIGSA: phytotoxicity rating 0-100 at 14 days after application
Method in brief: as §1

[12] = tested on: velvetleaf (Abutilon theophrasti, ABUTH); assay: Post-emerge test, greenhouse herbicide activity screening; details: post-emerge; for ABUTH phytotoxicity rating: 14 days after application, rating scale 0-100; for Post-emerge Herbicidal Activity ABUTH: phytotoxicity rating 0-100 at 14 days after application
Method in brief: (§2)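 Visual ratings on a 0-100 scale (0 no damage, 100 all plants dead) were taken at 14 days after treatment. Rates of 15-1000 g ai/ha in acetone, 187 l/ha, were sprayed onto soil one day after planting (pre-emerge) or onto 2-3 leaf plants with 0.25% v/v surfactant (post-emerge).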

[13] = tested on: lambsquarters (Chenopodium album, CHEAL); assay: as above; details: post-emerge; for CHEAL phytotoxicity rating: 14 days after application, rating scale 0-100; for Post-emerge Herbicidal Activity CHEAL: phytotoxicity rating 0-100 at 14 days after application
Method in brief: as §2

[14] = tested on: ivyleaf morningglory (Ipomoea hederacea, IPOHE); assay: as above; details: post-emerge; for IPOHE phytotoxicity rating: 14 days after application, rating scale 0-100; for Post-emerge Herbicidal Activity IPOHE: phytotoxicity rating 0-100 at 14 days after application
Method in brief: as §2

[15] = tested on: sicklepod (Cassia obtusifolia, CASOB); assay: as above; details: post-emerge; for CASOB phytotoxicity rating: 14 days after application, rating scale 0-100; for Post-emerge Herbicidal Activity CASOB: phytotoxicity rating 0-100 at 14 days after application
Method in brief: as §2

[16] = tested on: barnyardgrass (Echinochloa crus-galli, ECHCG); assay: as above; details: post-emerge; for ECHCG phytotoxicity rating: 14 days after application, rating scale 0-100; for Post-emerge Herbicidal Activity ECHCG: phytotoxicity rating 0-100 at 14 days after application
Method in brief: as §2

[17] = tested on: redroot pigweed (Amaranthus retroflexus, AMARE); assay: as above; details: post-emerge; for AMARE phytotoxicity rating: 14 days after application, rating scale 0-100; for Post-emerge Herbicidal Activity AMARE: phytotoxicity rating 0-100 at 14 days after application
Method in brief: as §2

[18] = tested on: green foxtail (Setaria viridis, SETVI); assay: as above; details: post-emerge; for SETVI phytotoxicity rating: 14 days after application, rating scale 0-100; for Post-emerge Herbicidal Activity SETVI: phytotoxicity rating 0-100 at 14 days after application
Method in brief: as §2

[19] = tested on: large crabgrass (Digitaria sanguinalis, DIGSA); assay: as above; details: post-emerge; for DIGSA phytotoxicity rating: 14 days after application, rating scale 0-100; for Post-emerge Herbicidal Activity DIGSA: phytotoxicity rating 0-100 at 14 days after application
Method in brief: as §2

[20] = tested on: field corn (Zea mays L., var. Dekalb 535, CORN); assay: Pre-emerge test, crop safety; details: pre-emerge; for phytotoxicity rating CORN (crop damage): 14 days after application, scale 0-100; for Pre-emerge Herbicidal Activity CORN: crop damage, phytotoxicity rating 0-100 at 14 days after application
Method in brief: (§3)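 Sandy loam pots; pre-emerge: sown 1 d pre-spray, surface-watered after, then bottom-watered. Post-emerge: sown 8–21 d before, 2–3 leaf stage, + 0.25% v/v NIS, bottom-watered. Acetone, 187 l/ha track spray, 15–1000 g ai/ha. 0–100 injury score, day 14.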

[21] = tested on: upland rice (Oryza sp., var. Tebonnet, RICE); assay: Pre-emerge test, crop safety; details: pre-emerge; for phytotoxicity rating RICE (crop damage): 14 days after application, scale 0-100; for Pre-emerge Herbicidal Activity RICE: crop damage, phytotoxicity rating 0-100 at 14 days after application
Method in brief: as §3

Cn1c(C(F)(F)F)cc(=O)n(-c2ccccc2NC(=O)c2ccc3ccccc3c2)c1=O [2-142]
40: phytotoxicity rating AMARE ([1]; 250 g ai/ha) | phytotoxicity rating CHEAL ([5]; 63 g ai/ha) | ABUTH phytotoxicity rating ([12]; 250 g ai/ha) | AMARE phytotoxicity rating ([17]; 250 g ai/ha)
10: CORN phytotoxicity rating (crop damage) ([2]; 63 g ai/ha) | RICE phytotoxicity rating (crop damage) ([3]; 63 g ai/ha) | CASOB phytotoxicity rating ([15]; 250 g ai/ha)
20: CHEAL phytotoxicity rating ([13]; 63 g ai/ha)
0: phytotoxicity rating AMARE ([1]; 63 g ai/ha) | RICE phytotoxicity rating (crop damage) ([3]; 250 g ai/ha) | phytotoxicity rating ABUTH ([4]; 63 g ai/ha) | phytotoxicity rating ABUTH ([4]; 250 g ai/ha) | phytotoxicity rating IPOHE ([6]; 63 g ai/ha) | phytotoxicity rating IPOHE ([6]; 250 g ai/ha) | phytotoxicity rating CASOB ([7]; 63 g ai/ha) | phytotoxicity rating CASOB ([7]; 250 g ai/ha) | phytotoxicity rating ECHCG ([8]; 63 g ai/ha) | phytotoxicity rating ECHCG ([8]; 250 g ai/ha) | phytotoxicity rating SORHA ([9]; 63 g ai/ha) | phytotoxicity rating SORHA ([9]; 250 g ai/ha) | phytotoxicity rating SETVI ([10]; 63 g ai/ha) | phytotoxicity rating SETVI ([10]; 250 g ai/ha) | phytotoxicity rating DIGSA ([11]; 63 g ai/ha) | phytotoxicity rating DIGSA ([11]; 250 g ai/ha) | ABUTH phytotoxicity rating ([12]; 63 g ai/ha) | IPOHE phytotoxicity rating ([14]; 63 g ai/ha) | CASOB phytotoxicity rating ([15]; 63 g ai/ha) | ECHCG phytotoxicity rating ([16]; 63 g ai/ha) | ECHCG phytotoxicity rating ([16]; 250 g ai/ha) | AMARE phytotoxicity rating ([17]; 63 g ai/ha) | SETVI phytotoxicity rating ([18]; 63 g ai/ha) | SETVI phytotoxicity rating ([18]; 250 g ai/ha) | DIGSA phytotoxicity rating ([19]; 63 g ai/ha) | DIGSA phytotoxicity rating ([19]; 250 g ai/ha) | phytotoxicity rating CORN (crop damage) ([20]; 63 g ai/ha) | phytotoxicity rating CORN (crop damage) ([20]; 250 g ai/ha) | phytotoxicity rating RICE (crop damage) ([21]; 63 g ai/ha) | phytotoxicity rating RICE (crop damage) ([21]; 250 g ai/ha)
60: CHEAL phytotoxicity rating ([13]; 250 g ai/ha)
70: phytotoxicity rating CHEAL ([5]; 250 g ai/ha)
50: IPOHE phytotoxicity rating ([14]; 250 g ai/ha)
15: CORN phytotoxicity rating (crop damage) ([2]; 250 g ai/ha)

O=C(Nc1cc(Cl)ccc1-n1c(=O)n2n(c1=S)CCCC2)c1ccc2ccccc2c1 [9-14]
15: Post-emerge Herbicidal Activity CORN ([2]; 63 g ai/ha)
65: Pre-emerge Herbicidal Activity AMARE ([1]; rate 250 g ai/ha)
95: Post-emerge Herbicidal Activity CHEAL ([13]; 63 g ai/ha)
80: Pre-emerge Herbicidal Activity CHEAL ([5]; rate 63 g ai/ha) | Post-emerge Herbicidal Activity IPOHE ([14]; 63 g ai/ha)
20: Pre-emerge Herbicidal Activity ABUTH ([4]; rate 63 g ai/ha) | Post-emerge Herbicidal Activity SETVI ([18]; 250 g ai/ha)
40: Pre-emerge Herbicidal Activity AMARE ([1]; rate 63 g ai/ha) | Post-emerge Herbicidal Activity RICE ([3]; 250 g ai/ha) | Pre-emerge Herbicidal Activity ECHCG ([8]; rate 250 g ai/ha) | Post-emerge Herbicidal Activity CASOB ([15]; 63 g ai/ha) | Post-emerge Herbicidal Activity CASOB ([15]; 250 g ai/ha)
85: Pre-emerge Herbicidal Activity ABUTH ([4]; rate 250 g ai/ha) | Post-emerge Herbicidal Activity AMARE ([17]; 63 g ai/ha)
10: Pre-emerge Herbicidal Activity IPOHE ([6]; rate 250 g ai/ha) | Pre-emerge Herbicidal Activity SORHA ([9]; rate 250 g ai/ha) | Post-emerge Herbicidal Activity ECHCG ([16]; 250 g ai/ha) | Post-emerge Herbicidal Activity SETVI ([18]; 63 g ai/ha) | Post-emerge Herbicidal Activity DIGSA ([19]; 250 g ai/ha) | Pre-emerge Herbicidal Activity RICE ([21]; rate 250 g ai/ha)
90: Post-emerge Herbicidal Activity IPOHE ([14]; 250 g ai/ha)
30: Pre-emerge Herbicidal Activity SETVI ([10]; rate 250 g ai/ha) | Pre-emerge Herbicidal Activity DIGSA ([11]; rate 250 g ai/ha)
0: Post-emerge Herbicidal Activity RICE ([3]; 63 g ai/ha) | Pre-emerge Herbicidal Activity IPOHE ([6]; rate 63 g ai/ha) | Pre-emerge Herbicidal Activity CASOB ([7]; rate 63 g ai/ha) | Pre-emerge Herbicidal Activity CASOB ([7]; rate 250 g ai/ha) | Pre-emerge Herbicidal Activity ECHCG ([8]; rate 63 g ai/ha) | Pre-emerge Herbicidal Activity SORHA ([9]; rate 63 g ai/ha) | Pre-emerge Herbicidal Activity SETVI ([10]; rate 63 g ai/ha) | Pre-emerge Herbicidal Activity DIGSA ([11]; rate 63 g ai/ha) | Post-emerge Herbicidal Activity ECHCG ([16]; 63 g ai/ha) | Post-emerge Herbicidal Activity DIGSA ([19]; 63 g ai/ha) | Pre-emerge Herbicidal Activity CORN ([20]; rate 63 g ai/ha) | Pre-emerge Herbicidal Activity CORN ([20]; rate 250 g ai/ha) | Pre-emerge Herbicidal Activity RICE ([21]; rate 63 g ai/ha)
50: Post-emerge Herbicidal Activity CORN ([2]; 250 g ai/ha)
100: Pre-emerge Herbicidal Activity CHEAL ([5]; rate 250 g ai/ha) | Post-emerge Herbicidal Activity ABUTH ([12]; 63 g ai/ha) | Post-emerge Herbicidal Activity ABUTH ([12]; 250 g ai/ha) | Post-emerge Herbicidal Activity CHEAL ([13]; 250 g ai/ha) | Post-emerge Herbicidal Activity AMARE ([17]; 250 g ai/ha)
